Assay results taken from patent publication US12122811B2, “BDNF mimetic peptide amphiphiles” (Northwestern University, priority 2018, dated 2024).
Positions of bridges follow the written chain, without caps; N, C: chain ends. Non-standard residues stand in square brackets, D forms with d. Residues, ends and D or L forms follow the SMILES beside them. Chains are numbered I, II in the order given. *: point of attachment. PEG6 = NCCOCCOCCOCCOCCOCCOCCC(=O)O; Palmitoyl = CCCCCCCCCCCCCCCC(=O)*

Legend:
[1] = tested on: primary mouse cortical neurons; assay: Multi-electrode array (MEA) electrophysiology of neuronal cultures; format: cell-based; conditions: for spontaneous firing frequency: 30 days in vitro, relative to control condition; for network burst duration / spikes per network burst: over time, vs control media
Method: Electrophysiology—Multi Electrode Array (MEA) Plates. For 2D electrophysiology studies, 12 well MEA plates with 64 electrodes per well were coated with PEI and laminin according to Axion Biosystems protocols.^5 Embryonic primary neurons were seeded at a density of 60,000 cells/well and cultured during 14 DIV. On day 14, cells were treated with BDNF protein, BDNF PA, BDNF Peptide, or starvation media. Every 5 days, half of the media was removed from each well and replaced with fresh media containing additional treatment. Spontaneous network and synchronized activity was recorded using Axion Biosystems Maestro 768 channel amplifier and Axion Integrated Studios (AxIS) v2.4 software. The amplifier recorded from all channels simultaneously using a gain of 1200× and a sampling rate of 12.5 kHz/channel. After passing the signal through a Butterworth band-pass filter (300-5000 Hz) on-line spike detection (threshold=6× the root-mean-square of noise on each channel) was done with the AxIS adaptive spike detector. All recordings were conducted at 37° C. with appropriate 5% CO2/95% O2. Spontaneous network activity was recorded for 5 min each day starting at 10 DIV. Active electrodes were defined as having >5 spikes/min and only wells with over 10 active electrodes during the baseline-recording period were used in the analysis. Synchronized activity was defined as spike and burst activity that occurred on 25% of the electrodes or more in a well within 100 ms of each other. […] All data reflects well-wide averages, where the reported value of n represents the number of wells per condition.

MAPK pathway (pErk 1/2) = assay: MAPK pathway activation, western blot of phosphorylated Erk (pErk 1/2); format: cell-based, mouse; conditions: 6 h of treatment, vs control conditions
Method: (§1) For western blot, cells were cultured in 6 well plates at a density of approximately 900,000 cells/well for 14 DIV before being treated. Treatments were added for 2, 4, 6, 8, 12 or 24 h in vitro before protein was harvested. For TrkB inhibitor studies, cells were cultured for 14 DIV and then treated with a TrkB specific inhibitor, K-252a (Sigma Aldrich), for 1 hour prior to being treated with the different conditions mentioned above. Protein was extracted after six hours of treatment.
(§2) Western Blot. Protein was extracted from primary neuronal cultures with Halt Protease and Phosphatase Inhibitor Cocktail (Thermo Scientific) and a BCA assay (Thermo Scientific) was performed to determine protein content of each sample. Cell protein was loaded into and separated using a 4-20% SDS-PAGE gel (Bio-Rad). It was then electrotransferred from the gel to a nitrocellulose membrane (Bio-Rad). The membranes were blocked with 5% milk solution (Bio-Rad) for 30 minutes followed by an overnight incubation with primary antibodies at 4° C. […] Protein signals were detected using Radiance Bioluminescent ECL substrate (Azure Biosystems). Densitometry analysis, standardized to total receptor content or Actin as a control for protein loading, was performed using ImageJ software.^3 For quantification, triplicate samples were analyzed and at least two different experiments were conducted.

PI3K pathway (pAKT) = assay: PI3K pathway activation, western blot of phosphorylated AKT (pAKT); format: cell-based, mouse; conditions: 6 h of treatment, vs control conditions
Method: as §1, §2

In the case of CCCCCCCCCCCCCCCC(=O)N[C@H](C(=O)N[C@H](C(=O)N[C@@H](C)C(=O)N[C@@H](C)C(=O)N[C@@H](CCC(=O)O)C(=O)N[C@@H](CCC(=O)O)C(=O)N[C@@H](CCC(=O)O)C(=O)N[C@@H](CCC(=O)O)C(=O)NCCOCCOCCOCCOCCOCCOCCC(=O)NCCCC[C@@H]1NC(=O)[C@H]2CCCN2C(=O)[C@H](CCCNC(=N)N)NC(=O)[C@H](CCCCN)NC(=O)[C@H](CCCCN)NC1=O)C(C)C)C(C)C [BDNF PA, RKK(aK)(dP)-(PEG6 Spacer)-EEEEAAVV-C16 (SEQ ID NO: 5)] (I: Palmitoyl-VVAAEEEE[PEG6] / II: cyclo(KKKR[dP]); amide I:C-II:1), the spontaneous firing frequency [1] is reported as “increased spontaneous firing frequency relative to the control condition”, the network burst duration [1] is reported as “longer network bursts” and the “spikes per network burst” value [1] is reported as “significantly more spikes per network burst”. For the same molecule, the “activation of the MAPK pathway (pErk 1/2)” value (MAPK pathway (pErk 1/2)) was “marked increase in activation” and the “activation of the PI3K pathway (pAKT)” value (PI3K pathway (pAKT)) was “marked increase in activation”.

B1: BDNF protein: Human/Murine/Rat BDNF protein (Peprotech) (protein, UniProt P23560 19-247, looked up)
Neurotrophic factor BDNF …: APMKEANIRGQGGLAYPGVRTHGTLESVNGPKAGSRGLTSLADTFEHVIEELLDEDQKVRPNEENNKDADLYTSRVMLSSQVPLEPPLLFLLEEYKNYLDAANMSMRVRRHSDPARRGELSVCDSISEWVTAADKKTAVDMSGGTVTVLEKVPVSKGQLKQYFYETKCNPMGYTKEGCRGIDKRHWNSQCRTTQSYVRALTMDSKKRIGWRFIRIDTSCVCTLTIKRGR
With B1 the spontaneous firing frequency [1] was “increased spontaneous firing frequency relative to the control condition”, the network burst duration [1] was “longer network bursts” and the “spikes per network burst” value [1] was “significantly more spikes per network burst”. For the same molecule, the “activation of the MAPK pathway (pErk 1/2)” value (MAPK pathway (pErk 1/2)) was “marked increase in activation” and the “activation of the PI3K pathway (pAKT)” value (PI3K pathway (pAKT)) was “marked increase in activation”.
